According to article PMC8228075, “In Vitro and In Silico Characterization of G-Protein Coupled Receptor (GPCR) Targets of Phlorofucofuroeckol-A and Dieckol” (Marine Drugs, 2021):
Where “and” joins values, the source holds several entries; their conditions need not be identical. Equal entries are not always repeated. Where two headings read alike, the source gives them in different places. Marks after values point to notes of the source that are not given here.

What was measured:
[1] = target: T1, Vasopressin 1A receptor (hV1AR) (Homo sapiens, UniProt P37288); assay: hV1AR functional agonist assay (Ca2+ mobilization, CHO-V1AR cells); assay type: cell-based; details: for Agonist Effect: % of control response to 1 µM AVP
T1 construct: host or cells: CHO-V1AR cells
T1 sequence (P37288 whole entry): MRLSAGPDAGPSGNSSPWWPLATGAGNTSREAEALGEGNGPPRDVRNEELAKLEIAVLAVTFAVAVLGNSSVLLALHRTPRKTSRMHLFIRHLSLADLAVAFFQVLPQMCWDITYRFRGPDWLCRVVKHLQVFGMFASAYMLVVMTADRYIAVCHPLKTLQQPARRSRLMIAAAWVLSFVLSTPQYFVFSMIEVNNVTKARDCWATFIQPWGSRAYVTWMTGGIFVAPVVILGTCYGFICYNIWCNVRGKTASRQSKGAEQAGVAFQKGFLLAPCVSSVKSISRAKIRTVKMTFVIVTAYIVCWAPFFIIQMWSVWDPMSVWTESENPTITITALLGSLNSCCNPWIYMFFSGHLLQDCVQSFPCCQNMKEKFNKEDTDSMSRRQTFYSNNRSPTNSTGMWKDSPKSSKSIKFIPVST
From the text: (§1) The in-house assay protocol and experimental conditions are reported in our previous reports. The functional effect of dieckol and PFF-A was characterized based on their modulation effect on cytosolic Ca^2+ ion mobilization using a fluorimetric detection method or by measuring their effect on cAMP modulation using homogeneous time-resolved fluorescence (HTRF) detection.
(§2) Then, fluorescent probe (Fluo4, Invitrogen) mixed with probenecid in HBSS buffer (Invitrogen, Carlsbad, CA, USA) supplemented with 20 mM HEPES, pH 7.4 (Invitrogen) was added to each well, allowing to equilibrate with the cells for 60 min at 37 °C, then 15 min at 22 °C.

[2] = target: T1, Vasopressin 1A receptor (hV1AR); assay: hV1AR functional antagonist assay (Ca2+ mobilization, CHO-V1AR cells); assay type: cell-based; details: for Antagonist Effect: % inhibition of control response to 10 nM AVP; for IC50: antagonist effect, mean ± SD, n = 3
From the text: as §1, §2

[3] = target: T2, Free fatty acid receptor 1 (FFA1R) (GPR40) (Homo sapiens, UniProt O14842); assay: FFA1R/GPR40 functional agonist assay (Ca2+ mobilization, HEK-293 cells); assay type: cell-based; details: 100 µM; % of control response to 100 µM linoleic acid
T2 construct: host or cells: HEK-293 cells
T2 sequence (O14842 whole entry): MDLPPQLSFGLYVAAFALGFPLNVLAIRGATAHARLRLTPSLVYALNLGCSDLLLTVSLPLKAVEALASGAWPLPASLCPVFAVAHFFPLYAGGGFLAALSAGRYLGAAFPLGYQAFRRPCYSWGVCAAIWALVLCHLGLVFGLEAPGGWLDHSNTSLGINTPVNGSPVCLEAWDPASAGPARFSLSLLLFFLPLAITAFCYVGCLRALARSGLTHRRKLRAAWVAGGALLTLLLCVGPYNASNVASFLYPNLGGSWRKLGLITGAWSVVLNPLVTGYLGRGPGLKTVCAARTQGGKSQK
Experimental: The in-house assay protocol and experimental conditions are reported in our previous reports. […] Then, the mixture of fluorescent probe (Fluo4 Direct, Invitrogen) and probenecid in HBSS buffer (Invitrogen) complemented with 20 mM Hepes (Invitrogen) (pH 7.4) was added into each well and incubated for 60 min at 37 °C, followed by 15 min incubation at 22 °C. Thereafter, the assay plates were positioned in a CellLux microplate reader (PerkinElmer, Waltham, MA, USA) which was used for the addition of the following: For agonist assay-test compound, reference agonist, or HBSS buffer (basal control). Linoleic acid at 100 μM was added in separate assay wells for stimulated control measurement.

[4] = target: T3, δ-opioid receptor (hδ-OPR) (Homo sapiens, UniProt P41143); assay: hδ-OPR functional antagonist assay (Ca2+ mobilization, rat basophil leukemia cells); assay type: cell-based; details: for Antagonist Effect: 50 µM; for IC50: antagonist effect, mean ± SD, n = 3; for inhibition at 150 µM: read-out: Antagonist Effect, 150 µM
T3 construct: host or cells: rat basophil leukemia cells
T3 sequence (P41143 whole entry): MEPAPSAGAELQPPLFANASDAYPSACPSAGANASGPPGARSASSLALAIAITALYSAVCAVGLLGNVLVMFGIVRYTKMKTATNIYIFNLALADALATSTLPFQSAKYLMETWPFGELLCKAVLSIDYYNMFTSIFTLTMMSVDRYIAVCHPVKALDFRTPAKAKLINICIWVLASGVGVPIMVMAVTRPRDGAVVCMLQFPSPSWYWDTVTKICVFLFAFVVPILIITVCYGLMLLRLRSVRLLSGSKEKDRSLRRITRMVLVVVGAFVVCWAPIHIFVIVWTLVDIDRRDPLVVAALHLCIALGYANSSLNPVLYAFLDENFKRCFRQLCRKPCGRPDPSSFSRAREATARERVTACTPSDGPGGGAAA
From the text: as §1
Thereafter, a mixture of fluorescent probe (Fluo8, AAT Bioquest) and probenecid in HBSS buffer (Invitrogen) complemented with 20 mM Hepes (Millipore) (pH 7.4) was added and plates were incubated for 60 min at 30 °C. Then, the assay plates were positioned in a FlipR Tetra microplate reader (Molecular Device, San Jose, CA, USA) for the addition of the test compound, reference agonist/antagonist, or HBSS buffer (basal control). Change in fluorescence intensity that varies proportionally to the free cytosolic Ca^2+ ion concentration was measured.

[5] = target: T2, Free fatty acid receptor 1 (FFA1R) (GPR40); assay: FFA1R/GPR40 functional antagonist assay (Ca2+ mobilization, HEK-293 cells); assay type: cell-based; details: HEK293, read-out: Antagonist Effect
[6] = target: T1, Vasopressin 1A receptor (hV1AR); parameters: method as in PMID 31238535; details: 100 µM, % of control response to 1 µM AVP, value extracted from previous study ref 22, cited from earlier work
[7] = 50 µM, dieckol value flagged as apparent inhibition (at least 25% agonist effect)
[8] = 100 µM, values flagged as apparent inhibition (at least 25% agonist effect)
[9] = % inhibition of control response to 25 nM DPDPE

| SMILES | Agonist Effect ([1]; 50 µM) [%] | Agonist Effect ([1]; 100 µM) [%] | Agonist Effect ([1]; 150 µM) [%] | EC50 ([1]; agonist effect, mean ± SD, n = 3) [µM] | Antagonist Effect [2, 7] | Antagonist Effect [2, 8] | IC50 [2] [µM] | inhibition at 100 µM ([2]; read-out: Antagonist Effect) [%] | inhibition at 150 µM ([2]; read-out: Antagonist Effect) [%] | Agonist Effect [3] [%] | Antagonist Effect [4, 9] [%] | IC50 [4] [µM] | inhibition at 100 µM ([4]; read-out: Antagonist Effect, 100 µM, % inhibition of control response to 25 nM DPDPE) [%] | inhibition at 150 µM [4, 9] [%] | inhibition at 100 µM [5] [%] | Antagonist Effect ([2]; 100 µM, values flagged as apparent inhibition (at least 25% agonist effect), listed as Phlorofucofuroeckol-A) | inhibition at 25 µM ([2]; read-out: Antagonist Effect) [%] | Agonist Effect [6] | Agonist Effect ([6]; listed as Phlorofucofuroeckol-A) |
| --- | --- | --- | --- | --- | --- | --- | --- | --- | --- | --- | --- | --- | --- | --- | --- | --- | --- | --- | --- |
| Oc1cc(O)cc(Oc2c(O)cc(O)c3c2Oc2c(O)cc(Oc4c(O)cc(Oc5c(O)cc(O)c6c5Oc5c(O)cc(O)cc5O6)cc4O)cc2O3)c1 [Dieckol, dieckol] | 50.40 ± 0.42 | 106.73 ± 2.97 | 118.1 ± 2.83 | 39.1 ± 2.12 | 41.53 ± 7.39 ^c % | 57.77 ± 0.32 ^b % and 57.77 ± 0.32 ^c % | 82.7 ± 8.73 | 57.77 ± 0.32 | 68.8 ± 0.85 | 0.2 ± 1.56 | 23.23 ± 4.04 | 80.5 ± 13.7 | 67 ± 0.92 | 100 ± 1.53 | 22.6 ± 5.44 |  |  |  |  |
| Oc1cc(O)cc(Oc2c(O)cc(O)c3c2Oc2c(O)cc4oc5c(Oc6cc(O)cc(O)c6)c(O)cc(O)c5c4c2O3)c1 [PFF-A, phlorofucofuroeckol-A] |  |  |  |  | 52.80 ± 8.09% | 56.90 ± 5.37 ^c % | 42.25 ± 0.41 | 56.9 ± 5.37 | 56.1 ± 4.72 | −1.0 ± 0.07 | 89.03 ± 0.70 | < 50 |  | 93.7 ± 6.67 | 30.1 ± 0.78 | 56.90 ± 5.37 ^b % | 35.7 ± 3.88 | 38.45 ± 7.14% and 38.45 ± 7.14 ^c % | 38.45 ± 7.14 ^a % |
